# Results reported in patent US9695155B2, “Herbicidal substituted pyrimidinyloxy benzene compounds” (E. I. DU PONT DE NEMOURS AND COMPANY, priority 2013, dated 2017).
# Legend:
# oilseed rape = assay: Test C postemergence; type: in vivo, Brassica napus; details: for Plant response rating (0 to 100), Oilseed Rape: 16 g ai/ha, 0 is no effect, 100 is complete control; for Plant response rating, Oilseed Rape: scale 0 to 100 (0 no effect, 100 complete control)
# Source text: Seeds of plant species selected from blackgrass (Alopecurus myosuroides), Italian ryegrass (Lolium multiflorum), wheat, winter (winter wheat, Triticum aestivum), galium (catchweed bedstraw, Galium aparine), corn (Zea mays), large (Lg) crabgrass (Digitaria sanguinalis), giant foxtail (Setaria faberii), johnsongrass (Sorghum halepense), lambsquarters (Chenopodium album), morningglory (Ipomoea coccinea), yellow nutsedge (Cyperus esculentus), pigweed (Amaranthus retroflexus), ragweed (common ragweed, Ambrosia elatior), soybean (Glycine max), barnyardgrass (Echinochloa crus-galli), oilseed rape (Brassica napus), waterhemp (common waterhemp, Amaranthus rudis), kochia (Kochia scoparia), wild oat (Avena fatua), surinam grass (Brachiaria decumbens), foxtail, green (green foxtail, Setaria viridis), goosegrass (Eleusine indica), bromegrass, downy (downy bromegrass, Bromus tectorum), nightshade (eastern black nightshade, Solanum ptycanthum), cocklebur (common cocklebur, Xanthium strumarium), cupgrass, woolly (woolly cupgrass, Eriochloa villosa), bermudagrass (Cynodon dactylon), sunflower, (common oilseed sunflower, Helianthus annuus), Russian thistle (Salsola kali), and velvetleaf (Abutilon theophrasti) were planted into a blend of loam soil and sand and treated preemergence with test chemicals formulated in a non-phytotoxic solvent mixture which included a surfactant.
# At the same time, plants selected from these crop and weed species and also barley, winter (winter barley, Hordeum vulgare), windgrass (Apera spica-venti), chickweed (common chickweed, Stellaria media), deadnettle (henbit deadnettle, Lamium amplexicaule), and canarygrass (littleseed canarygrass, Phalaris minor) were planted in pots containing Redi-Earth® planting medium (Scotts Company, 14111 Scottslawn Road, Marysville, Ohio 43041) comprising spaghnum peat moss, vermiculite, wetting agent and starter nutrients and treated with postemergence applications of test chemicals formulated in the same manner. Plants ranged in height from 2 to 18 cm (1- to 4-leaf stage) for postemergence treatments. Treated plants and controls were maintained in a greenhouse for 13 to 15 days, after which time all species were compared to controls and visually evaluated. Plant response ratings, summarized in Table C, are based on a scale of 0 to 100 where 0 is no effect and 100 is complete control. A dash (-) response means no test result.
# galium = assay: Test C preemergence; type: in vivo, Galium aparine; details: for Galium plant response rating: preemergence
# Outline: (§1)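 Rated visually on 0–100 (100 = complete control) after 13–15 days under glass. Treatments went onto freshly seeded loam/sand soil or onto emerged plants at the 1- to 4-leaf stage, using a surfactant-containing solvent formulation.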
# sedge, umbrella = assay: Test B flooded paddy test; type: in vivo, Cyperus difformis; details: Flood, 250 g ai/ha; 0 to 100 scale where 0 is no effect and 100 is complete control
# Outline: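 Post-emergence paddy-water application at the 2-leaf stage, with 3 cm flood kept for the whole test. Response was judged visually relative to controls after 13 to 15 greenhouse days, 0 indicating no effect and 100 complete control.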
# large (Lg) crabgrass = assay: Test C postemergence; type: in vivo, Digitaria sanguinalis; details: for Plant response rating (0 to 100), Crabgrass, Large: 16 g ai/ha, 0 is no effect, 100 is complete control; for Plant response rating, Crabgrass, Large: scale 0 to 100 (0 no effect, 100 complete control)
# Outline: as §1
# velvetleaf = assay: Test C postemergence; type: in vivo, Abutilon theophrasti; details: for Plant response rating (0 to 100), Velvetleaf: 16 g ai/ha, 0 is no effect, 100 is complete control; for Plant response rating, Velvetleaf: scale 0 to 100 (0 no effect, 100 complete control)
# Outline: as §1
# morningglory = assay: Test A preemergence; type: in vivo, Ipomoea spp.; details: 1000 g ai/ha, 0 to 100 scale, 0 no effect, 100 complete control, approx. 10 days
# Outline: (§2)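 Injury scores run from 0, no effect, to 100, complete control, judged by eye against untreated plants roughly 10 days after treatment. Chemicals carried a surfactant in a non-phytotoxic solvent and went onto loam–sand soil preemergence or onto one- to two-leaf seedlings postemergence.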
# wheat [1] = assay: Test A postemergence; type: in vivo, Triticum aestivum; details: 0 to 100 scale, 0 no effect, 100 complete control
# Outline: as §2
# pigweed [2] = assay: Test A postemergence; type: in vivo, Amaranthus retroflexus; details: 0 to 100 scale, 0 no effect, 100 complete control
# Outline: as §2
# johnsongrass = assay: Test C postemergence; type: in vivo, Sorghum halepense; details: for Plant response rating (0 to 100), Johnsongrass: 16 g ai/ha, 0 is no effect, 100 is complete control; for Plant response rating, Johnsongrass: scale 0 to 100 (0 no effect, 100 complete control)
# Outline: as §1
# wheat [3] = assay: Test A preemergence; type: in vivo, Triticum aestivum; details: 1000 g ai/ha, 0 to 100 scale, 0 no effect, 100 complete control, approx. 10 days
# Outline: as §2
# pigweed [4] = assay: Test A preemergence; type: in vivo, Amaranthus retroflexus
# Outline: as §2
# giant foxtail = assay: Test C postemergence; type: in vivo, Setaria faberii; details: for Plant response rating (0 to 100), Foxtail, Giant: 16 g ai/ha, 0 is no effect, 100 is complete control; for Plant response rating, Foxtail, Giant: scale 0 to 100 (0 no effect, 100 complete control)
# Outline: as §1
# Italian ryegrass = assay: Test C preemergence; type: in vivo, Lolium multiflorum; details: for Ryegrass, Italian plant response rating: preemergence
# Outline: as §1
# soybean = assay: Test C postemergence; type: in vivo, Glycine max; details: for Plant response rating (0 to 100), Soybean: 16 g ai/ha, 0 is no effect, 100 is complete control; for Plant response rating, Soybean: scale 0 to 100 (0 no effect, 100 complete control)
# Outline: as §1
# yellow nutsedge = assay: Test C postemergence; type: in vivo, Cyperus esculentus; details: for Plant response rating, Nutsedge, Yellow: scale 0 to 100 (0 no effect, 100 complete control)
# Outline: as §1
# [5] = 125 g ai/ha, postemergence, visual rating
# [6] = 16 g ai/ha, scale 0 to 100 (0 no effect, 100 complete control)
# [7] = 62 g ai/ha, scale 0 (no effect) to 100 (complete control)
# [8] = 125 g ai/ha, scale 0 (no effect) to 100 (complete control)
# [9] = Preemergence, 31 g ai/ha, scale 0 to 100, 0 no effect, 100 complete control
Structure (SMILES),"Plant response rating (0 to 100), Oilseed Rape (oilseed rape; postemergence)","Plant response rating, Oilseed Rape (oilseed rape; [5])","Plant response rating, Oilseed Rape (oilseed rape; Postemergence, 62 g ai/ha)","Plant response rating, Sedge, Umbrella (sedge, umbrella)","Plant response rating (0 to 100), Crabgrass, Large (large (Lg) crabgrass; postemergence)","Plant response rating, Crabgrass, Large (large (Lg) crabgrass; [5])","Plant response rating, Crabgrass, Large (large (Lg) crabgrass; Postemergence, 62 g ai/ha)","Plant response rating (0 to 100), Velvetleaf (velvetleaf; postemergence)","Plant response rating, Velvetleaf (velvetleaf; [5])","Plant response rating, Velvetleaf (velvetleaf; Postemergence, 62 g ai/ha)","Plant response rating (0 to 100), Johnsongrass (johnsongrass; postemergence)","Plant response rating, Johnsongrass (johnsongrass; [5])","Plant response rating, Johnsongrass (johnsongrass; Postemergence, 62 g ai/ha)","Plant response rating (0 to 100), Foxtail, Giant (giant foxtail; postemergence)","Plant response rating, Foxtail, Giant (giant foxtail; [5])","Plant response rating, Foxtail, Giant (giant foxtail; Postemergence, 62 g ai/ha)","Plant response rating (0 to 100), Soybean (soybean; postemergence)","Plant response rating, Soybean (soybean; [5])","Plant response rating, Soybean (soybean; Postemergence, 62 g ai/ha)",also measured
N#Cc1cn(-c2c(Br)cccc2Oc2ncc(Cl)cn2)nn1 [Compound 116],5,40,10,30,5,30,15,25,85,60,0,15,0,30,10,40,15,95,60,"Galium plant response rating (galium; [6]): 0; Galium plant response rating (galium; [7]): 100; Galium plant response rating (galium; [8]): 100; Plant response rating, Galium (galium; [9]): 100; Morningglory plant response rating (morningglory): 100; Plant response rating, Wheat (wheat [1]; 1000 g ai/ha): 50; Plant response rating, Pigweed (pigweed [2]; 1000 g ai/ha): 100; Wheat plant response rating (wheat [3]): 40; Pigweed plant response rating (pigweed [4]; 1000 g ai/ha, 0 to 100 scale, 0 no effect, 100 complete control, approx. 10 days): 100; Ryegrass, Italian plant response rating (Italian ryegrass; [6]): 0; Ryegrass, Italian plant response rating (Italian ryegrass; [7]): 10; Ryegrass, Italian plant response rating (Italian ryegrass; [8]): 35; Plant response rating, Ryegrass, Italian (Italian ryegrass; [9]): 0"
FCc1cccc(Oc2ncc(Br)cn2)c1-n1cc(C(F)(F)F)cn1 [Compound 120],5,15,5,95,5,10,10,10,50,35,0,10,5,5,35,10,30,80,30,"Plant response rating, Wheat (wheat [1]; 31 g ai/ha): 0; Plant response rating, Pigweed (pigweed [2]; 31 g ai/ha): 60; Pigweed plant response rating (0 to 100 scale) (pigweed [4]; 31 g ai/ha): 100; Plant response rating, Pigweed (pigweed [4]; 125 g ai/ha, 0 to 100 scale where 0 is no effect and 100 is complete control): 100; Plant response rating (0 to 100), Nutsedge, Yellow (yellow nutsedge; 16 g ai/ha, postemergence, 0 is no effect, 100 is complete control): 0; Plant response rating, Nutsedge, Yellow (yellow nutsedge; [5]): 25; Plant response rating, Nutsedge, Yellow (yellow nutsedge; Postemergence, 62 g ai/ha): 10"
